Measured values taken from patent US6344479B1, “Method of preventing retinopathy of prematurity in a neonate” (Farmacon-Il, LLC, priority 2001, dated 2002).

Tests used:
prematurely born infants = experiment: Clinical study: development of retinopathy of prematurity (ROP) in premature neonates given NSAID; format: in vivo, human; conditions: for Max ROP grades: data as means per treatment group; for ROP: No (number of neonates without ROP) / ROP: Yes (number of neonates with any ROP): data as numbers of neonates per treatment group, i.v. postnatal treatment, gestation no more than 31 weeks
Method: A clinical study was carried out at the Neonatology Unit of University Hospital, Antwerp, Belgium.
Patients and Methods: 229 prematurely born infants were included in the study. All infants were born after a gestation period of no more than 31 weeks and all infants survived for a period of at least 21 days. Prospective serial retinal observation were performed by pediatric ophthalmologist starting at a postmenstrual age of 33 weeks. Evaluation for ROP in both eyes included staging and extension of disease, zone of involvement, number of clock hours, and the presence of any additional disease.

mouse = conditions: administered concurrently with the injury phase; normal growth not affected; cited from earlier work

Compound | Max ROP grades (prematurely born infants) | ROP: No (number of neonates without ROP) (prematurely born infants) | ROP: Yes (number of neonates with any ROP) (prematurely born infants) | Risk of developing ROP (in words) (prematurely born infants; postnatal administration, independently of other studied neonatal risk factors) | Effect on oxygen-induced retinopathy (in words) (mouse)
CC(C)Cc1ccc(C(C)C(=O)O)cc1 (centres unmarked) [Ibuprofen, ibuprofen lysinate] | 0.26 units | 26 | 5 | significantly reduced | 
COc1ccc2c(c1)c(CC(=O)O)c(C)n2C(=O)c1ccc(Cl)cc1 [Indomethacin, indomethacin] | 1 units | 32 | 30 |  | improved oxygen-induced retinopathy
